SMILES strings stand for the structures. Where a name gives a salt, the structure may show the parent alone.

In one data set the target is T1, transglutaminase (Streptomyces mobaraensis, UniProt P81453). The experiment in a line: Experimental Example 1: accelerated test by high temperature storage, transglutaminase activity by hydroxamate method. It counts as physicochemical, microorganism. As to conditions: conclusion of Experimental Example 1; additive 10 wt%, 44°C 24 hr.
T1 sequence (P81453 77-407): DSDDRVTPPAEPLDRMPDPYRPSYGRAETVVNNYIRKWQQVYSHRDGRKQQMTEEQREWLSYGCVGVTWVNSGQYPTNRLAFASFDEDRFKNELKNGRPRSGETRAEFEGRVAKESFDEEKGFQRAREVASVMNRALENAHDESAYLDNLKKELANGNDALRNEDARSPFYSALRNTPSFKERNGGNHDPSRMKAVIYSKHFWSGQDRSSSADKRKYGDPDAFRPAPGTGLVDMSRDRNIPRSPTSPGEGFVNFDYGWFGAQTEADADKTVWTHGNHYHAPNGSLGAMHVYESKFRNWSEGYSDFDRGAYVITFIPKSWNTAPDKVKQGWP
Procedure: The enzyme activity of transglutaminase can be measured and calculated by, for example, the hydroxamate method. That is, benzyloxycarbonyl-L-glutaminyl glycine is reacted with hydroxylamine as a substrate to form an iron complex of hydroxamic acid formed in the aforementioned reaction in the presence of trichloroacetic acid, the absorbance at 525 nm is measured, and the amount of hydroxamic acid produced is determined from the calibration curve, whereby the enzyme activity can be calculated.
The stability of transglutaminase in each liquid preparation of the above-mentioned Examples 1 - 5 and Comparative Example 1 was evaluated by an accelerated test by high temperature storage as follows.
Respective liquid preparations of the above-mentioned Examples 1 - 5 and Comparative Example 1 were stored at 4°C and 44°C for 24 hr, and the transglutaminase activity in the liquid preparation was measured by the above-mentioned hydroxamate method.
A liquid preparation obtained by dissolving only transglutaminase in a phosphate buffer was used as a control and treated in the same manner.
For `NCC(=O)O` [glycine, 2-aminoacetic acid], the “transglutaminase stabilizing effect in a liquid preparation” value (shortened to “transglutaminase stabilizing effect”) was “has a transglutaminase stabilizing effect”.
The same measure, in the same setting: for `Cl.NCCCC[C@H](N)C(=O)O` [lysine hydrochloride, reference compound] the value was “not found”.
Same read-out and setting: for `O=C(O)C1CCCN1` (stereo not drawn) [proline, pyrrolidine-2-carboxylic acid] the value was “has a transglutaminase stabilizing effect”; for `NC(CO)C(=O)O` (stereo not drawn) [serine, 2-amino-3-hydroxypropionic acid], “has a transglutaminase stabilizing effect”.
Regarding `N[C@@H](CC(=O)[O-])C(=O)[O-].[Na+].[Na+]` [sodium aspartate], the “transglutaminase stabilizing effect” value was “has a transglutaminase stabilizing effect”.
Turning to `N[C@@H](CCC(=O)[O-])C(=O)[O-].[Na+].[Na+]` [sodium glutamate], the “transglutaminase stabilizing effect” value is “has a transglutaminase stabilizing effect”.

In another data set the target is T1, transglutaminase.
Test: not given
The following applies: conclusion of Experimental Example 4; organic acid salt 10 wt%, 44°C 24 hr.
For `CC(=O)O` [sodium acetate], the stabilization of transglutaminase entry is “can also stabilize transglutaminase”.
As to `O=C(O)CC(O)(CC(=O)O)C(=O)O` [sodium citrate], the stabilization of transglutaminase result is “can also stabilize transglutaminase”.
With `O=C([O-])[C@H](O)[C@@H](O)[C@H](O)[C@H](O)CO.[Na+]` [sodium gluconate], the stabilization of transglutaminase result was “can also stabilize transglutaminase”.

The record behind these values is patent EP3770254A1, “LIQUID P[…] TRANSGLUTAMINASE” (AJINOMOTO CO., INC., priority 2018, dated 2019).
